Data on six compounds can be found in ChEMBL document CHEMBL4145648, “Swinhoeisterols from the South China Sea Sponge Theonella swinhoei” (J Nat Prod, 2018).

This experiment addresses Histone acetyltransferase p300 (Homo sapiens, UniProt Q09472). Kind of experiment: Inhibition of human p300 expressed in Escherichia coli incubated for 15 mins followed by [3H]acetyl-CoA/histone addition.

Some results are limits rather than exact numbers.

Histone acetyltransferase p300, sequence (Q09472 whole entry): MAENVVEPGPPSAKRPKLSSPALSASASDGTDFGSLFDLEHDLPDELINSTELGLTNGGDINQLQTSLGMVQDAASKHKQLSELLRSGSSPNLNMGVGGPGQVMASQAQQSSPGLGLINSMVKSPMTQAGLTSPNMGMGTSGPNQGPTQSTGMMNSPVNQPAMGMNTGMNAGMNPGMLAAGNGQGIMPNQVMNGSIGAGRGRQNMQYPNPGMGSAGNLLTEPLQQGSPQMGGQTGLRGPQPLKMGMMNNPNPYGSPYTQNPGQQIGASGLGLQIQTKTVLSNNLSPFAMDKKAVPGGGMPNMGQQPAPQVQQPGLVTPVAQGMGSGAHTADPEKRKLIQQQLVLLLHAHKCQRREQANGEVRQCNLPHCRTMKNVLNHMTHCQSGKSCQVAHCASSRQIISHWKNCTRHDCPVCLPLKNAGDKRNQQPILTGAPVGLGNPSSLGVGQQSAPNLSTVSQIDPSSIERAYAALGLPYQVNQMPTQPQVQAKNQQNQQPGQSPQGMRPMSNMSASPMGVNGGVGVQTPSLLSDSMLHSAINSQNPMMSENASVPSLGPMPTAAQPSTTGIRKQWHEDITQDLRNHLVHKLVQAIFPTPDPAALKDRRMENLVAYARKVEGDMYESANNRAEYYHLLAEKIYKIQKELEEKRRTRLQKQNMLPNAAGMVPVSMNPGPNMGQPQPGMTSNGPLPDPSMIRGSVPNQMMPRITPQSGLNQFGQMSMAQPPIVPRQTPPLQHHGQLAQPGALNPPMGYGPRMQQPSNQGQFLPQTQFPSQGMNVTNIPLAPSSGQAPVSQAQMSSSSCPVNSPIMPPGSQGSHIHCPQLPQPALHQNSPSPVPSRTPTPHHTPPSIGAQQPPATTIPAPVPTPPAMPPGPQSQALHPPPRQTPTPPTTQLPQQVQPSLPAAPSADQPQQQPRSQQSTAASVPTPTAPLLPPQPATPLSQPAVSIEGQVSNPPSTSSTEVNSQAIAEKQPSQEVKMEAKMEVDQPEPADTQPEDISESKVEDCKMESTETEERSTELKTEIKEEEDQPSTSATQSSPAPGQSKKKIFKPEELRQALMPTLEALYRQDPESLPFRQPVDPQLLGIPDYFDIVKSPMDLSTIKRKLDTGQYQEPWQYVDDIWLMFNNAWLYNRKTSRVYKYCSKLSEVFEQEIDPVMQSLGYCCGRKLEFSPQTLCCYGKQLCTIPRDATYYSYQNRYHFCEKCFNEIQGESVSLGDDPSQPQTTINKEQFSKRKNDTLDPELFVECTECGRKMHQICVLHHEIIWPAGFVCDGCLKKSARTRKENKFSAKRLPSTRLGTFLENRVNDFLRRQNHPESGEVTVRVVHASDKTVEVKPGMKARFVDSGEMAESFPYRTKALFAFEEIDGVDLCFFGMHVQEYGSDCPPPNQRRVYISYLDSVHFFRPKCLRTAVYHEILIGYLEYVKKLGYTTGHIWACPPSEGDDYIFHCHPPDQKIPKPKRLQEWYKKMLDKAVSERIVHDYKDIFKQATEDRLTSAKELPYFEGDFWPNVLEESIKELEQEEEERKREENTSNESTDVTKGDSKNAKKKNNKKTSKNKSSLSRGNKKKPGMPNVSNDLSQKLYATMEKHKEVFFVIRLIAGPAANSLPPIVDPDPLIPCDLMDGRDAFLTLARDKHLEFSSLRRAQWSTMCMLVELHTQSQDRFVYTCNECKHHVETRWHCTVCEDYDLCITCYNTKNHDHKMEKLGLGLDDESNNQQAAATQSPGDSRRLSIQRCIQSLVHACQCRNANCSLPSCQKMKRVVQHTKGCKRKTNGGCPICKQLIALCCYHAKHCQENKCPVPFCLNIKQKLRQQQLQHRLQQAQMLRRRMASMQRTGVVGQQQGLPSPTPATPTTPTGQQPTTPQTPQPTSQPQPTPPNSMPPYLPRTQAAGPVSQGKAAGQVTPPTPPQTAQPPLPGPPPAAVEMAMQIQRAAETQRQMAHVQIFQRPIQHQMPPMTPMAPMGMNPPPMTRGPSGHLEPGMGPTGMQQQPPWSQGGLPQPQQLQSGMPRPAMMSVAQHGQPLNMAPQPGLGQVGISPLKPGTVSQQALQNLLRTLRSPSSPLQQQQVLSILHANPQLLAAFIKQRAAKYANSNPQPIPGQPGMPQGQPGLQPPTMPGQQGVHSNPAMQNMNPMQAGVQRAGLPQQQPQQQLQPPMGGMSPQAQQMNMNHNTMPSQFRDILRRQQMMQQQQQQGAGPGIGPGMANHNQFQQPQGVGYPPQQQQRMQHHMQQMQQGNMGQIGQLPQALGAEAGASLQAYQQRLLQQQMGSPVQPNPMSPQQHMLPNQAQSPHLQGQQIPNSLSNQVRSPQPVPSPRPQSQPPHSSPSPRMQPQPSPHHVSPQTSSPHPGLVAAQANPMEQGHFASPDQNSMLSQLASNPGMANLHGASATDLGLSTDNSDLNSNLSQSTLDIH

As usually defined, the IC50 is the concentration at which inhibition is half-maximal. Compound `C=C1[C@@H](O)CC[C@@]2(C)[C@H]1CC1=C3[C@@H]2CC[C@]3(C)[C@@H]([C@H](C)CC[C@@H](C)C(C)C)CCC1=O` registered an IC50 above 10 µM.
Next, `C=C(C)[C@H](CC=C(C)C)C[C@]12C[C@H](CC=C(C)C)C(C)(C)[C@](CC=C(C)C)(C(=O)C(C(=O)c3ccc(O)c(O)c3)=C1O)C2=O`: 0.5 µM; `C=C1[C@@H](O)CC[C@@]2(C)[C@H]1C[C@]1(O)C(=O)CC[C@H]([C@H](C)CC[C@@H](C)C(C)C)[C@@]3(C)CC[C@]24O[C@@]413`: above 10 µM.
Next, `C=C1[C@@H](O)CC[C@]2(C)[C@H]3CC[C@@]4(C)[C@]35O[C@]4([C@H](C)CC[C@@H](C)C(C)C)CCC(=O)[C@@H]5C[C@@H]12`: above 10 µM; `C=C1[C@@H](O)CC[C@@]2(C)[C@H]1C[C@H]1C(=O)CC[C@H]([C@H](C)CC[C@@H](C)C(C)C)[C@@]3(C)CC[C@]24O[C@]143`: 8.8 µM.
Next, `C=C1[C@@H](O)CC[C@]2(C)C3=C4[C@@H](C[C@@H]12)C(=O)CC[C@H]([C@H](C)CC[C@@H](C)C(C)C)[C@@]4(C)CC3`: 3.3 µM.
